Assays:
Ole1 = biological target: T1, Ole1 (Saccharomyces cerevisiae, UniProt P21147); assay: Growth inhibition of yeast strain expressing Ole1 as sole desaturase; assay type: cell-based; conditions: yeast strain expressing Ole1 as sole desaturase
T1 construct: expressed in transfected cells; host or cells: S. cerevisiae ole1Δ strain (W303 pdr1Δ pdr3Δ background), plasmid pRS316 with TDH3 promoter and CYC1 terminator
T1 sequence (P21147 1-510): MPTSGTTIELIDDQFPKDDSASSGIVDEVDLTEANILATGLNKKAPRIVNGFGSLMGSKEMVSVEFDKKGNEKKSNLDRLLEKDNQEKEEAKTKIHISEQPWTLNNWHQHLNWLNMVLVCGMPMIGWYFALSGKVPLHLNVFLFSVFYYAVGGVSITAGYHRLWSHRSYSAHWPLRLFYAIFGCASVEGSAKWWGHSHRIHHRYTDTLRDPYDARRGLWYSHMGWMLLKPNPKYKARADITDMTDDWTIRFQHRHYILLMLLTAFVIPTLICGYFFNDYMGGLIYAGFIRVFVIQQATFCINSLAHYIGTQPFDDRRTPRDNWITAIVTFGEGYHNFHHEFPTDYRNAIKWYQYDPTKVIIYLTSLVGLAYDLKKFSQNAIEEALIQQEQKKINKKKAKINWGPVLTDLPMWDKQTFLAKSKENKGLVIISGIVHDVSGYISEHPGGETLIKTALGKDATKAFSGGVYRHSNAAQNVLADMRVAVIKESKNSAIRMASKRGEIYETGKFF
Method in brief: (§1)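 OD600 growth read-out. ole1Δ yeast, pdr1Δ pdr3Δ, with Ole1/SCD1/SCD5 on a plasmid; SX-Ura media throughout; 2× cell density 0.02 in CSM-Galactose; DMSO compound dilutions; humidified 30° C.; Ole1 stopped at 24 h, SCD1/SCD5 at 40 h.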

SCD1 = biological target: T2, SCD1 (Homo sapiens, UniProt O00767); assay: Growth inhibition of humanized yeast strain expressing SCD1 as sole desaturase; assay type: cell-based; conditions: humanized yeast strain expressing SCD1
T2 construct: host or cells: S. cerevisiae ole1Δ strain (W303 pdr1Δ pdr3Δ background), plasmid pRS316 with TDH3 promoter and CYC1 terminator
T2 sequence (O00767 1-359): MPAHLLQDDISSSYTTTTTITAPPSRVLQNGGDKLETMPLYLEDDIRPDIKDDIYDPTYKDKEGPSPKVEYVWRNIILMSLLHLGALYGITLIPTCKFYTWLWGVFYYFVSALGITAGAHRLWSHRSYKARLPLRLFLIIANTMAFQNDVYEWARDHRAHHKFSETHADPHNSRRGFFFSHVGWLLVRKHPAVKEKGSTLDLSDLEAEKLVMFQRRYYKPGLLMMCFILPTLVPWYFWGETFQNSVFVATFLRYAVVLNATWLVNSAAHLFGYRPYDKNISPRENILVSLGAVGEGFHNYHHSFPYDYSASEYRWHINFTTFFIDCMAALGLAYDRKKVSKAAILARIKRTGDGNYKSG
Method in brief: as §1

SCD5 = biological target: T3, SCD5 (Homo sapiens, UniProt Q86SK9); assay: Growth inhibition of humanized yeast strain expressing SCD5 as sole desaturase; assay type: cell-based; conditions: humanized yeast strain expressing SCD5
T3 construct: host or cells: S. cerevisiae ole1Δ strain (W303 pdr1Δ pdr3Δ background), plasmid pRS316 with TDH3 promoter and CYC1 terminator
T3 sequence (Q86SK9 1-330): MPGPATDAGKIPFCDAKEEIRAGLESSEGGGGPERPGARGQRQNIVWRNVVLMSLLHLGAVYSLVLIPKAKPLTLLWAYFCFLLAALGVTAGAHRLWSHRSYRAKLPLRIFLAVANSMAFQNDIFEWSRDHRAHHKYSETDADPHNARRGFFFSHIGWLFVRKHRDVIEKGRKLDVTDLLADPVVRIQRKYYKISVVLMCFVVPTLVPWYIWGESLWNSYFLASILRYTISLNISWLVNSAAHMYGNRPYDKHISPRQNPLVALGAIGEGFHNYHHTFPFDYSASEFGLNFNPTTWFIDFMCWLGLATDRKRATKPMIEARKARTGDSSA
Method in brief: as §1

[1] = tested on: yeast strains expressing the human α-synuclein; assay: Yeast α-synuclein toxicity rescue assay (OD600 growth); conditions: 40 h; for EC50: read-out: α-Syn EC50; for Emax: read-out: α-Syn Emax
Text: The induced expression of α-synuclein and ApoE4 confers cytotoxicity, thus enabling the identification of compounds that can restore cell viability. This instantaneous/synchronous induction of α-synuclein and ApoE4 can be achieved due to the following expression control. In glucose-containing media, gene expression from the GAL1 promoter is ‘off’ and actively repressed by additional epigenetic factors. In raffinose, expression is ‘off’, but the promoter not actively repressed. Upon transition to galactose-containing media, the promoter is instantaneously turned ‘on’ to achieve robust and synchronous induction of α-synuclein or ApoE4 expression. This highly regulated induction provides a robust window for the determination of both efficacy (amplitude of protective effect) and potency (concentration of protective effect) of cytoprotective compounds.
Re-suspended compound stocks were subsequently arrayed into 384 well compound plates using automated pipetting. All other wells not receiving stock compound were filled with 10 μL of 100% DMSO using an automated plate filler (Multidrop Combi). An 11 point, 2-fold serial dilution was then performed using the robotic platform. Compound assay plates were covered with foil and stored at −20° C. until use.
Each strain was handled according to standard protocols and cultured in media composed of CSM (complete synthetic media), YNB (yeast nitrogenous base), and a 2% (w/v) carbon source (either glucose, raffinose, or galactose).
In a standard yeast assay, a single-use aliquot of cells was thawed on ice and diluted into CSM/glucose (5 mL). Cultures were grown for 8 hours at 30° C. This pre-growth enables the yeast to exit the thaw and begin to grow without expressing aSyn or ApoE4. After 8 hours, cell density (OD600) was determined and cultures diluted to an OD600 of 0.01 in CSM/raffinose for an overnight culture phase at 30° C. During this period, the active glucose repression of the GAL1 promoter was relieved; however, expression of the α-Syn/ApoE4 genes were not yet induced. After ˜16 hours of growth, cultures attain an OD600 of 0.4-0.8 and were ready to apply to assay plates containing compound.
Compound profiling assays were executed in clear-bottom 384 well plates. First, compound plates were thawed at room temperature for 45′, centrifuged at 1,000×g for 1 minute, and the foil removed. Clear 384 well assay plates were then filled with 15 μL of CSM/galactose. […] The pin tool was washed iteratively with both 50% DMSO and 100% ethanol between each assay plate. After delivering compound to each assay plate, the overnight CSM/raffinose aSyn or ApoE4 cultures were added at a 2X cell density (0.04 for aSyn and 0.08 for ApoE4) in CSM/galactose to achieve a final assay OD600 of 0.02 and 0.04 for aSyn and ApoE, respectively. The cultures (15 μL per well) were then dispensed to the compound -containing 384 well assay plates using an automated plate filler. Plates were incubated in a humidified 30° C. incubator for 40 or 24 hours for aSyn and ApoE4, respectively. The ODsoo of each assay plate was then read with a microplate reader (e.g., Perkin Elmer Envision).
The efficacy and potency of compounds were calculated according to the following. Raw data (OD600 values) were first background corrected to account for OD600 contributed by the plate and media itself. The efficacy (percent above DMSO, herein referred to as “Emax”) was calculated according to the equation: (Experimental well−DMSO control well)/(DMSO control well)*100. […] Normalized dose-response data was fit with a logistic regression curve using Spotfire (TIBCO), or similar curve-fitting software package. EC50 values were then reported along with EMax to provide both efficacy and potency measures for each analog and enable further compound design.

| Structure (SMILES) | IC50 (Ole1) | IC50 (SCD1) | IC50 (SCD5) | EC50 [1] | Emax [1] | OLE1 % Max Inhibition (Ole1) | SCD1 % Max Inhibition (SCD1) | SCD5 % Max Inhibition (SCD5) |
| --- | --- | --- | --- | --- | --- | --- | --- | --- |
| Cc1n[nH]c2cc(-c3noc(C4CCN(C(=O)CNC(=O)c5ccccc5)CC4)n3)ccc12 [compound 93] | > 45 µM | > 45 µM | > 45 µM | 1.8 µM | 626% |  |  |  |
| CCOc1ccc(-c2noc(C3CCN(C(=O)CN4Cc5ccccc5C4=O)CC3)n2)nc1OC [Compound 142] | > 45 µM | > 45 µM | > 45 µM | 7.64 µM | 319% | 1.11% | 80.83% | 26.00% |
| COc1ccc(-c2noc(C3CCN(C(=O)CNC(C)=O)CC3)n2)cc1OC [Compound 46] | > 45 µM | > 45 µM | > 45 µM | 10.9 µM | 35% | 87.95% | 70.27% | 72.35% |
| COc1ccccc1-c1noc(C2CCN(C(=O)CNC(=O)c3ccccc3)CC2)n1 [compound 12] | > 45 µM | > 45 µM | > 45 µM | 16.2 µM | 43% |  |  |  |
| O=C(NCC(=O)N1CCC(c2nc(-c3ccc4cn[nH]c4c3)no2)CC1)c1ccccc1 [compound 88] | > 45 µM | 33.5 µM | > 45 µM | 9.04 µM | 130% |  |  |  |
| CCOc1cnc(-c2noc(C3CCN(C(=O)CN4Cc5ccccc5C4=O)CC3)n2)cc1OC [Compound 147] | > 45 µM | > 45 µM | > 45 µM | 17.9 µM | 453% | 9.34% | 74.14% | 86.70% |
| COc1ccc(-c2noc(C3CCN(C(=O)C(C)(C)NC(=O)c4ccccc4)CC3)n2)cc1OC [Compound 29] | > 45 µM | > 45 µM | > 45 µM | 13.9 µM | 38% | 91.00% | 69.52% | 74.10% |
| Cc1nn(C)c2cc(-c3noc(C4CCN(C(=O)C(CO)N5Cc6ccccc6C5=O)CC4)n3)ccc12 (stereo not drawn) [Compound 129] | > 45 µM | > 45 µM | > 45 µM | 0.047 µM | 360% | 3.25% | 75.60% | 93.05% |
| CCOc1ccc(-c2noc(N3CCC(C(=O)N4CCN(C)C(c5ccccc5)C4)CC3)n2)cc1OC (stereo not drawn) [Compound 113] | > 45 µM | 40.7 µM | > 45 µM | 15.6 µM | 55% | 5.55% | 55.33% | 27.28% |
| O=C(NCC(=O)N1CCC(c2nc(-c3ccc4nsnc4c3)no2)CC1)c1ccccc1 [Compound 104] | > 45 µM | > 45 µM | > 45 µM | 1.87 µM | 253% | 110.40% | 76.89% | 77.11% |
| Cn1c(=O)n(C)c2cc(-c3noc(C4CCN(C(=O)CNC(=O)c5ccccc5)CC4)n3)ccc21 [Compound 122] | > 45 µM | > 45 µM | > 45 µM | 0.139 µM | 414% | 109.89% | 92.73% | 90.04% |
| CCOc1ccc(-c2noc(C3CCN(C(=O)c4cc(-c5ccccc5)no4)CC3)n2)cc1OC [compound 92] | > 45 µM | > 45 µM | > 45 µM | 2.5 µM | 187% |  |  |  |
| CCOc1cnc(-c2noc(C3CCN(C(=O)CNC(=O)c4ccccc4)CC3)n2)cc1OC [Compound 121] | > 45 µM | > 45 µM | > 45 µM | 15.5 µM | 388% | 111.12% | 94.06% | 98.38% |
| CCOc1ncc(-c2noc(C3CCN(C(=O)CNC(=O)c4ccccc4)CC3)n2)cc1OC [Compound 132] | > 45 µM | > 45 µM | > 45 µM | 1.01 µM | 253% | 7.45% | 115.10% | 94.34% |
| COc1ccc(-c2noc(C3CCN(C(=O)CNC(=O)C(C)C)CC3)n2)cc1OC [Compound 47] | > 45 µM | > 45 µM | > 45 µM | 16.5 µM | 88% | 109.20% | 73.30% | 74.25% |
| COc1ccc(-c2noc(C3CCN(C(=O)CNC(=O)c4ccccn4)CC3)n2)cc1OC [Compound 145] | 15.8 µM | > 45 µM | > 45 µM | 0.1 µM | 432% | 51.17% | 78.31% | 86.51% |
| Cc1nn(C)c2ccc(-c3noc(C4CCN(C(=O)N5CCCCC5)CC4)n3)cc12 [Compound 117] | > 45 µM | > 45 µM | 36.1 µM | 7.5 µM | 124% | 92.97% | 95.94% | 54.63% |
| Cc1nn(C)c2cc(-c3noc(C4CCN(C(=O)CNC(=O)c5ccccc5)CC4)n3)cnc12 [Compound 137] | > 45 µM | > 45 µM | 22.3 µM | 1.05 µM | 376% | 96.83% | 90.19% | 50.61% |
| CCOc1ccc(-c2noc(C3CCN(C(=O)CNC(=O)c4ccccc4)CC3)n2)cc1C#N [compound 101] | > 45 µM | > 45 µM | > 45 µM | 1.18 µM | 122% |  |  |  |
| COc1ccc(-c2nnc(C3CCN(C(=O)CNC(=O)c4ccccc4)CC3)o2)cc1OC [Compound 39] | > 45 µM | > 45 µM | > 45 µM | 18.1 µM | 216% | 110.89% | 77.01% | 79.10% |
| CCOc1ccc(-c2noc(C3CCN(C(=O)[C@H]4CC[C@H](c5ccccc5)N4)CC3)n2)cc1OC [Compound 119] | > 45 µM | > 45 µM | > 45 µM | 20.9 µM | 61% | 111.86% | 86.22% | 93.93% |
| Cc1nn(C)c2cc(-c3noc(C4CCN(C(=O)CNC(=O)c5ccccn5)CC4)n3)ccc12 [Compound 153] | > 45 µM | > 45 µM | > 45 µM | 0.02 µM | 271% | 2.75% | 75.76% | 87.51% |
| COc1ccc(CN2CC(C(=O)N3CCC(c4nc(-c5ccc6c(C)nn(C)c6c5)no4)CC3)CC2=O)c(OC)c1 (stereo not drawn) [Compound 124] | > 45 µM | > 45 µM | > 45 µM | 17.7 µM | 395% | 4.55% | 88.87% | 96.23% |
| Cc1nn(C)c2cc(-c3noc(C4CCN(C(=O)[C@H]5CC(=O)N(c6ccccc6)C5)CC4)n3)ccc12 [compound 90] | > 45 µM | > 45 µM | > 45 µM | 1.65 µM | 281% |  |  |  |

Source: patent US11873298B2, “Compounds and uses thereof” (JANSSEN PHARMACEUTICA NV, priority 2017, dated 2024)
